According to the supplement of paper PMC11208160:

Test: recombinant barcode read abundance after kanamycin selection (control-corrected) (log10(CPM+1)); higher = more efficient recombination; sequences stand for … in AGTGCAGAGAAAATCGGCCAGTTTTCTCTGCCTGCAGTCCGCATGCCGT…ATTTATGCAGCGGACTGCCTTTCTCCCAAAGTGATAAACCGGACAGTATCATGGACCGGTTTTCCCGGTAATCCGTATTTGCAAGGTTGGTTTCACT; site = the 11-nt target
Method in brief: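 Pooled oligos, each joining a target to an IS621 bridge RNA target-binding loop, were cloned and co-electroporated with a donor plasmid into E. coli. Selective plates carried chloramphenicol/ampicillin/kanamycin and 0.1 mM IPTG, while chloramphenicol/ampicillin LB agar served as control, with two replicates of each. Recombination efficiency rests on averaged, control-corrected counts per million of barcodes at recombinant junctions, shown as log10(CPM+1).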

Compared with “CGGTCCCGATGGGTTCTAACCTGTTGCCATC [CGGTCCCCTTG_LTGcore_GA_RTGcore_GA] (site CGGTCCCCTTG) (LTG core: GA, RTG core: GA)”, “CGGTCCCGGTGGGTTCTAACCTGTTGCCAAG [CGGTCCCCTTG_LTGcore_GG_RTGcore_CT] (site CGGTCCCCTTG) (LTG core: GG, RTG core: CT)” is lower in “recombinant barcode read abundance (log10)” value: 0.3 for the first, 0.0912 for the second.

“CGGTCCCGTTGGGTTCTAACCTGTTGCCAAG [CGGTCCCCTTG_LTGcore_GT_RTGcore_CT] (site CGGTCCCCTTG) (LTG core: GT, RTG core: CT)” and “GAGCCCAAATGGGTTCTAACCTGTTGCCTTT [GAGCCCACTAG_LTGcore_AA_RTGcore_AA] (site GAGCCCACTAG) (LTG core: AA, RTG core: AA)” are within 0.2 log units of each other in “recombinant barcode read abundance (log10)” value: 0.292 for the first, 0.102 for the second.

“GAGCCCAACTGGGTTCTAACCTGTTGCCTAG [GAGCCCACTAG_LTGcore_AC_RTGcore_CT] (site GAGCCCACTAG) (LTG core: AC, RTG core: CT)” and “GAGCCCAAGTGGGTTCTAACCTGTTGCCTAG [GAGCCCACTAG_LTGcore_AG_RTGcore_CT] (site GAGCCCACTAG) (LTG core: AG, RTG core: CT)” are within 0.2 log units of each other in “recombinant barcode read abundance (log10)” value: 0.135 for the first, 0.0502 for the second.

First: GAGCCCAATTGGGTTCTAACCTGTTGCCTAG [GAGCCCACTAG_LTGcore_AT_RTGcore_CT] (site GAGCCCACTAG) (LTG core: AT, RTG core: CT)
Second: GAGCCCACATGGGTTCTAACCTGTTGCCTTG [GAGCCCACTAG_LTGcore_CA_RTGcore_CA] (site GAGCCCACTAG) (LTG core: CA, RTG core: CA)
The “recombinant barcode read abundance (log10)” value of the first is lower: 0.204 for the first, 0.49 for the second.

“GAGCCCACCTGGGTTCTAACCTGTTGCCTAG [GAGCCCACTAG_LTGcore_CC_RTGcore_CT] (site GAGCCCACTAG) (LTG core: CC, RTG core: CT)” and “GAGCCCACGTGGGTTCTAACCTGTTGCCTCG [GAGCCCACTAG_LTGcore_CG_RTGcore_CG] (site GAGCCCACTAG) (LTG core: CG, RTG core: CG)” are within 0.2 log units of each other in “recombinant barcode read abundance (log10)” value: 0.29 for the first, 0.282 for the second.

Going from “GAGCCCACTTGGGTTCTAACCTGTTGCCTAA [GAGCCCACTAG_LTGcore_CT_RTGcore_TT] (site GAGCCCACTAG) (LTG core: CT, RTG core: TT)” to “GAGCCCACTTGGGTTCTAACCTGTTGCCTAC [GAGCCCACTAG_LTGcore_CT_RTGcore_GT] (site GAGCCCACTAG) (LTG core: CT, RTG core: GT)”, the “recombinant barcode read abundance (log10)” value falls from 0.912 to 0.369.

Going from “GAGCCCACTTGGGTTCTAACCTGTTGCCTAG [GAGCCCACTAG_LTGcore_CT_RTGcore_CT] (site GAGCCCACTAG) (LTG core: CT, RTG core: CT)” to “GAGCCCACTTGGGTTCTAACCTGTTGCCTCT [GAGCCCACTAG_LTGcore_CT_RTGcore_AG] (site GAGCCCACTAG) (LTG core: CT, RTG core: AG)”, the “recombinant barcode read abundance (log10)” value falls from 1.45 to 0.

Compared with “GAGCCCACTTGGGTTCTAACCTGTTGCCTTG [GAGCCCACTAG_LTGcore_CT_RTGcore_CA] (site GAGCCCACTAG) (LTG core: CT, RTG core: CA)”, “GAGCCCACTTGGGTTCTAACCTGTTGCCTTT [GAGCCCACTAG_LTGcore_CT_RTGcore_AA] (site GAGCCCACTAG) (LTG core: CT, RTG core: AA)” is lower in “recombinant barcode read abundance (log10)” value: 0.835 for the first, 0.37 for the second.

Going from “GAGCCCAGGTGGGTTCTAACCTGTTGCCTCC [GAGCCCACTAG_LTGcore_GG_RTGcore_GG] (site GAGCCCACTAG) (LTG core: GG, RTG core: GG)” to “GAGCCCAGTTGGGTTCTAACCTGTTGCCTAC [GAGCCCACTAG_LTGcore_GT_RTGcore_GT] (site GAGCCCACTAG) (LTG core: GT, RTG core: GT)”, the “recombinant barcode read abundance (log10)” value falls from 0.596 to 0.0734.

“GAGGCCTAATGGGTTCTAACCTGTTGCCATT [GAGGCCTCTTG_LTGcore_AA_RTGcore_AA] (site GAGGCCTCTTG) (LTG core: AA, RTG core: AA)” and “GAGGCCTACTGGGTTCTAACCTGTTGCCAAG [GAGGCCTCTTG_LTGcore_AC_RTGcore_CT] (site GAGGCCTCTTG) (LTG core: AC, RTG core: CT)” are within 0.2 log units of each other in “recombinant barcode read abundance (log10)” value: 0.223 for the first, 0.0351 for the second.

“GAGGCCTACTGGGTTCTAACCTGTTGCCAGT [GAGGCCTCTTG_LTGcore_AC_RTGcore_AC] (site GAGGCCTCTTG) (LTG core: AC, RTG core: AC)” and “GAGGCCTATTGGGTTCTAACCTGTTGCCAAG [GAGGCCTCTTG_LTGcore_AT_RTGcore_CT] (site GAGGCCTCTTG) (LTG core: AT, RTG core: CT)” are within 0.2 log units of each other in “recombinant barcode read abundance (log10)” value: 0.0631 for the first, 0.196 for the second.

“GAGGCCTATTGGGTTCTAACCTGTTGCCAAT [GAGGCCTCTTG_LTGcore_AT_RTGcore_AT] (site GAGGCCTCTTG) (LTG core: AT, RTG core: AT)” and “GAGGCCTCATGGGTTCTAACCTGTTGCCAAG [GAGGCCTCTTG_LTGcore_CA_RTGcore_CT] (site GAGGCCTCTTG) (LTG core: CA, RTG core: CT)” are within 0.2 log units of each other in “recombinant barcode read abundance (log10)” value: 0.122 for the first, 0.318 for the second.

“GAGGCCTGATGGGTTCTAACCTGTTGCCAAG [GAGGCCTCTTG_LTGcore_GA_RTGcore_CT] (site GAGGCCTCTTG) (LTG core: GA, RTG core: CT)” and “GAGGCCTGCTGGGTTCTAACCTGTTGCCAAG [GAGGCCTCTTG_LTGcore_GC_RTGcore_CT] (site GAGGCCTCTTG) (LTG core: GC, RTG core: CT)” are within 0.2 log units of each other in “recombinant barcode read abundance (log10)” value: 0.0459 for the first, 0.235 for the second.

First: GAGGCCTGTTGGGTTCTAACCTGTTGCCAAG [GAGGCCTCTTG_LTGcore_GT_RTGcore_CT] (site GAGGCCTCTTG) (LTG core: GT, RTG core: CT)
Second: GAGGCCTTATGGGTTCTAACCTGTTGCCAAG [GAGGCCTCTTG_LTGcore_TA_RTGcore_CT] (site GAGGCCTCTTG) (LTG core: TA, RTG core: CT)
The “recombinant barcode read abundance (log10)” value of the first is higher: 0.586 for the first, 0.145 for the second.

“GAGGCCTTGTGGGTTCTAACCTGTTGCCAAG [GAGGCCTCTTG_LTGcore_TG_RTGcore_CT] (site GAGGCCTCTTG) (LTG core: TG, RTG core: CT)” and “GAGTCCAACTGGGTTCTAACCTGTTGCGTAG [GAGTCCACTAC_LTGcore_AC_RTGcore_CT] (site GAGTCCACTAC) (LTG core: AC, RTG core: CT)” are within 0.2 log units of each other in “recombinant barcode read abundance (log10)” value: 0.0876 for the first, 0.282 for the second.

First: GAGTCCAAGTGGGTTCTAACCTGTTGCGTAG [GAGTCCACTAC_LTGcore_AG_RTGcore_CT] (site GAGTCCACTAC) (LTG core: AG, RTG core: CT)
Second: GAGTCCACATGGGTTCTAACCTGTTGCGTAG [GAGTCCACTAC_LTGcore_CA_RTGcore_CT] (site GAGTCCACTAC) (LTG core: CA, RTG core: CT)
The “recombinant barcode read abundance (log10)” value of the first is lower: 0.075 for the first, 0.829 for the second.

“GAGTCCACTTGGGTTCTAACCTGTTGCGTAC [GAGTCCACTAC_LTGcore_CT_RTGcore_GT] (site GAGTCCACTAC) (LTG core: CT, RTG core: GT)” and “GAGTCCACTTGGGTTCTAACCTGTTGCGTCA [GAGTCCACTAC_LTGcore_CT_RTGcore_TG] (site GAGTCCACTAC) (LTG core: CT, RTG core: TG)” are within 0.2 log units of each other in “recombinant barcode read abundance (log10)” value: 0.0332 for the first, 0.0372 for the second.
